Experimental data as given in PMC12463027, “KRAS/ABHD17C/ALOX15B Axis Promotes Pancreatic Cancer Progression via Ferroptosis Evasion” (Advanced Science, 2025).
Values belong to the molecule of their own block, whether it stands above or below them.

Tests used:
p-ABHD17C = biological target: T1, p-ABHD17C (Homo sapiens, UniProt Q6PCB6); assay: SPR (Biacore); co-IP in cells shows disruption of the ABHD17C/ALOX15B interaction; type: binding
T1 sequence (Q6PCB6 1-329): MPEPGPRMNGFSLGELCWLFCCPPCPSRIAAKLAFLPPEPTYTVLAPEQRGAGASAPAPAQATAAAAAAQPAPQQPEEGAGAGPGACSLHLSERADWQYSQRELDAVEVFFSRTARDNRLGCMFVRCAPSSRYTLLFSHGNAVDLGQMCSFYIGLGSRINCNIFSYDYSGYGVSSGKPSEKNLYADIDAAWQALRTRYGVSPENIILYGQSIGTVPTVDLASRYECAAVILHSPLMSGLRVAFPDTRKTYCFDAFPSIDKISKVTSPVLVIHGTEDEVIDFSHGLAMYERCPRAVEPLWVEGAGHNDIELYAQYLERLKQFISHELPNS

[1] = biological target: T2, ALOX15B immobilised for SPR (human, UniProt O15296 1-676); assay: SPR; ALOX15B immobilised on a Series S Sensor Chip, DCAF10 as analyte; settings: both partners purified
T2 construct: ALOX15B, human
T2 sequence (looked up): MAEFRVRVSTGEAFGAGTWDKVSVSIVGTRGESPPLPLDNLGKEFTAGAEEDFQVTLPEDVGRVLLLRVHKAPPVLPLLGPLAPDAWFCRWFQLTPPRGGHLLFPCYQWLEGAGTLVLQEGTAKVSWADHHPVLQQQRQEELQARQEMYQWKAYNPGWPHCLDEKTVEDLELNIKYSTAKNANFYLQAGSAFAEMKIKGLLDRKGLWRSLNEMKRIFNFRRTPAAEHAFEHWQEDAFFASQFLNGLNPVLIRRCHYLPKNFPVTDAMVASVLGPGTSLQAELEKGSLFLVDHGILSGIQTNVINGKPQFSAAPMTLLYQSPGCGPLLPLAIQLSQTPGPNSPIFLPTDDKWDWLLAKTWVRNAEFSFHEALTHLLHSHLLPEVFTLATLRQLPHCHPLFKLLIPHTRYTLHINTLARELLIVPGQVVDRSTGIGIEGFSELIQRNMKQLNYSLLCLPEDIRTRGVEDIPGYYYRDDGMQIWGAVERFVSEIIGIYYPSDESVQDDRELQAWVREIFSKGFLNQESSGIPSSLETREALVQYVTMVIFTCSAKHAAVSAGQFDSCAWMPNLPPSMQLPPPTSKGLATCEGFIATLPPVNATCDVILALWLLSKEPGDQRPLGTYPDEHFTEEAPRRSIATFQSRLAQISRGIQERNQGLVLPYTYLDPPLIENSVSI

Molecule: CO[C@]1(CC[C@@H](C)CO[C@@H]2O[C@H](CO)[C@@H](O)[C@H](O)[C@H]2O)O[C@H]2C[C@H]3[C@@H]4CC=C5C[C@@H](O[C@@H]6O[C@H](CO)[C@@H](O[C@@H]7O[C@@H](C)[C@H](O)[C@@H](O)[C@H]7O)[C@H](O)[C@H]6O[C@@H]6O[C@@H](C)[C@H](O)[C@@H](O)[C@H]6O)CC[C@]5(C)[C@H]4CC[C@]3(C)[C@H]2[C@@H]1C [methyl protodioscin]
Kd (p-ABHD17C): 4800 nM

Kd [1]: 6.96 nM
B1: recombinant DCAF10 (natural protein, UniProt Q5QP82 1-559, looked up)
chain: MFPFGPHSPGGDGSAGAGAEEPTPHEGQAAATGPPSPLHPGADATHPPPPARSPRRPGAPSLSPAPRSGELGLPGAPESSTASAPGEPSPPSPPCRRPGPDCRAKSRGRHGLGAGLGGPGARLFGWLKERSLGRGLFVDPARDNFRTMTSLYGSIHPADSVYLSTRTHGAVFNLEYSPDGSVLTVACEQTEVLLFDPISSKHIKTLSEAHEDCVNNIRFLDNRLFATCSDDTTIALWDLRKLNTKVCTLHGHTSWVKNIEYDTNTRLLVTSGFDGNVIIWDTNRYTEDGCPHKKFFHTRFLMRMRLTPDCSKMLISTSSGYLLILHDLDLTKSLEVGSYPILRARRTTSSSDLTTSSSSSGPRVSGSPCHHSDSNSSEKHMSRASQREGVSPRNSLEVVTPEVLGESDHGNCITSLQLHPKGWATLLRCSSNSDDEECTCVYEFQEGAPVRPVSPRCSLRLTHYIEEANVGRGYIKELCFSPDGRMISSPHGYGIRLLGFDKQCSELVDCLPKEASPLRVIRSLYSHNDVVLTTKFSPTHCQIASGCLSGRVSLYQPKF
notes: DCAF10, recombinant
